Measured values taken from patent US5403934A, “Heterocyclic compounds” (Burroughs Wellcome Co., priority 1990, dated 1995).

What was measured:
[1] = test system: Plasmodium falciparum; test: In vitro activity vs. Plasmodium falciparum (modified semi-automated microdilution technique of Desjardins et al, [3H]-hypoxanthine); assay type: cell-based; conditions: Erythrocyte, human erythrocytes, RPMI 1640 + 10% human plasma, 37° C, number of tests in parentheses in own column
Description: 1. In vitro Activity vs. Plasmodium falciparum The in vitro activity of the test compounds was determined using a modification of the semi-automated microdilution technique of Desjardins et al (1979). Initial dilutions were prepared from 1/100th molecular weight (in mg) of the compounds dissolved in dry ethanol, with the first 1:100 dilution being in ethanol and subsequent dilutions in RPMI 1640 medium supplemented with 10% v/v human plasma. Serial 1:2 drug dilutions were prepared in microtitration trays using microdiluters, each dilution being set up in triplicate. To this was added RPMI 1640 medium supplemented with 10% v/v human plasma, fresh and infected type A Rhesus positive human erythrocytes to yield a haematocrit of 3% and a parasitaemia of 0.25-0.5%. [^3 H]-hypoxanthine was added to give a final concentration of 12.5-16 μCi/ml of culture. The plates were sealed and incubated in a modular incubator in a gas mixture of 5% O2; 3% CO2 and 92% N2 by volume at 37° C. The test was completed as described by Desjardins et at (1979). Data were analysed to yield IC50 values by best fit to a sigmoidal dose-response curve.

[2] = test system: P. yoelii; test: Mouse 4-day suppressive test vs P. yoelii; assay type: in vivo; conditions: Plasmodium yoelii, P. yoelii YM strain, 7 oral doses in 4 days, CD1 mice, parasitaemia day 5
Description: 2. In vivo Activity vs. P.yoelii in the Mouse
In vivo activity was determined using the modified 4-day suppressive test involving an infection of the YM strain of P.yoelii by 3×10^6 parasitized erythrocytes/ml and 7 oral doses given in 4 days in CD1 mice. Drugs were formulated by ball milling overnight in 0.25% celacol with stainless steel balls to form a fine particle suspension. The total requirement was formulated at the beginning of a test and thereafter stored at 4° C. On the morning of day 5 smears of tail blood were prepared from each mouse, the parasitaemias counted and the inhibition as compared to control animals calculated. Data were analysed to yield ED50 values by the best fit to a sigmoidal dose response curve, and the results are presented in Table 2 below.

| IC50 [1] [nM] | Compound | ED50 [2] [mg/kg] |
| --- | --- | --- |
| 2500 | Cc1cc(=O)c(-c2ccc(Oc3ccc(Cl)cc3)cc2)c(C)[nH]1 [Example 1, 3-(4-(4-Chlorophenoxy)phenyl)-2,6-dimethylpyridin-4(1H)-one] | 2.5 |
| 200 | Cc1[nH]c(C)c(-c2ccc(Oc3ccc(Cl)cc3)cc2)c(=O)c1Br [Example 2, 3-Bromo-5-[4-(4-chlorophenoxy)phenyl]-2,6-dimethylpyridin-4(1H)-one] | 0.7 |
| 1400 | Cc1[nH]c(C)c(-c2ccc(Oc3ccc(Cl)cc3)cc2)c(=O)c1Cl [Example 3, 3-Chloro-5-(4-(4-chlorophenoxy)phenyl)-2,6-dimethylpyridin-4(1H)-one] | 1.6 |
| 1100 | Cc1cc(=O)c(-c2ccc(Oc3ccc(C(F)(F)F)cc3)cc2)c(C)[nH]1 [Example 4, 3-(4-(4-Trifluoromethylphenoxy)phenyl)-2,6-dimethylpyridin-4(1H)-one] | 1.25 |
| 220 | Cc1[nH]c(C)c(-c2ccc(Oc3ccc(C(F)(F)F)cc3)cc2)c(=O)c1Br [Example 5, 3-Bromo-5-(4-(4-trifluoromethylphenoxy)phenyl)-2,6-dimethylpyridin-4(1H)-one] | 0.26 |
| 8400 | Cc1cc(=O)c(-c2ccc(-c3ccc(Cl)cc3)cc2)c(C)[nH]1 [Example 6, 3-(4'-Chloro-4-biphenylyl)-2,6-dimethylpyridin-4(1H)-one] | 1.6 |
| 2000 | Cc1[nH]c(C)c(-c2ccc(-c3ccc(Cl)cc3)cc2)c(=O)c1Br [Example 7, 3-Bromo-5-(4'-chloro-4-biphenylyl)-2,6-dimethylpyridin-4(1H)-one] | 1.4 |
| 500 | Cc1[nH]c(C)c(-c2ccc(-c3ccc(Cl)cc3)cc2)c(=O)c1Cl [Example 8, 3-Chloro-5-(4'-chloro-4-biphenylyl)-2,6-dimethylpyridin-4(1H)-one] | 0.6 |
| 2300 | CCCCCCCCc1c(C)[nH]c(C)c(C#N)c1=O [Example 10, 5-Cyano-2,6-dimethyl-3-octylpyridin-4(1H)-one] |  |
| 23500 | Cc1c(Br)c(=O)c(-c2ccc(Cl)cc2)c(C)n1C [Example 12, 3-Bromo-5-(4-Chlorophenyl)-1,2,6-trimethylpyridin-4-one] | 16.4 |
| 23 | Cc1[nH]c(C)c(-c2ccc(Oc3ccc(OC(F)(F)F)cc3)cc2)c(=O)c1Br [Example 14, 3-Bromo-5-(4-(4-trifluoromethoxyphenoxy)phenyl)-2,6-dimethylpyridin-4(1H)-one] | 0.34 |
| 20 | Cc1[nH]c(C)c(-c2ccc(Oc3ccc(OC(F)(F)F)cc3)cc2)c(=O)c1Cl [Example 15, 3-Chloro-5-(4-(4-trifluoromethoxyphenoxy)phenyl)-2,6-dimethylpyridin-4(1H)-one] | 0.19 |
| 1600 | Cc1[nH]c(C)c(-c2ccc(Oc3ccc([S+](C)[O-])cc3)cc2)c(=O)c1Br (stereo not drawn) [Example 16, 3-Bromo-2,6-dimethyl-5-(4-(4-methylsulphinylphenoxy)phenyl)pyridin-4(1H)-one] |  |
